Data: patent US20240116985A1, “STAPLED PEPTIDES AND METHODS THEREOF” (priority 2020, published 2024)

Target: T1, full-length beta-Catenin (Uniprot ID P35222) (Homo sapiens, UniProt P35222)
T1 construct: 10 nM full-length beta-Catenin (Uniprot ID P35222)
T1 sequence (P35222 1-781): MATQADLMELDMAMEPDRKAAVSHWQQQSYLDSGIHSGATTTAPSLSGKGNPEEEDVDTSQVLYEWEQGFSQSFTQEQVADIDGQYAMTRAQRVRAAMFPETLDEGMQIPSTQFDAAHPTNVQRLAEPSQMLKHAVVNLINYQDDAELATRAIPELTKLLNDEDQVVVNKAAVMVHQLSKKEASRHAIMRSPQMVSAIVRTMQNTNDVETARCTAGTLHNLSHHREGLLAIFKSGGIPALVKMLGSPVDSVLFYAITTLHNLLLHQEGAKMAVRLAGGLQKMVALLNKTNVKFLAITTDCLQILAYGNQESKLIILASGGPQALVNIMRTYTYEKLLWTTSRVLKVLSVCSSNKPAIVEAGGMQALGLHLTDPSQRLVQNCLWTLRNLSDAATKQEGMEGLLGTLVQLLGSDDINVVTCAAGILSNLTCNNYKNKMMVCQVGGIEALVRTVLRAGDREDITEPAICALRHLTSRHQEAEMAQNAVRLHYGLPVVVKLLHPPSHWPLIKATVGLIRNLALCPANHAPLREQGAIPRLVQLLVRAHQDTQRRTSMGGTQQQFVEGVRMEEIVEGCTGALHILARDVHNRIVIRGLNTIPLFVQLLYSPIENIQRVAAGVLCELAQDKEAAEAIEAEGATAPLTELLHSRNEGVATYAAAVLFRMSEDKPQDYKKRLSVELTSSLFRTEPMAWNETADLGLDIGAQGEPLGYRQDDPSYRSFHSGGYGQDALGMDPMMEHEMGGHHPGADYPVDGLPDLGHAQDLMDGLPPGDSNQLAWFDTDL
Experiment: Fluorescence polarization IC50 (beta-catenin / 5FAM-TCF4 10-53 competition)
Type: binding
Details: fluorescence polarization; read-out: beta-Catenin FP IC50

Row | IC50 [µM] | Structure (SMILES)
1 | 0.06 | CCCc1cn(CCCC[C@H](NC(=O)[C@H](CO)NC(=O)[C@H](Cc2csc3ccccc23)NC(=O)[C@H](Cc2ccccc2C(F)(F)F)NC(=O)[C@]23CCN(C2)C(=O)OCCCC=CCCCC2(CCCC=CC[C@]4(CCCN4C(C)=O)C(=O)N[C@@H](CC(=O)O)C(=O)N[C@@H](CC(C)(C)C)C(=O)N2)C(=O)N[C@@H](CC(=O)O)C(=O)N[C@@H](Cc2cccc(C(=O)O)c2)C(=O)N[C@@H](C)C(=O)N[C@@H](C)C(=O)N[C@@H](Cc2ccccc2)C(=O)N[C@@H](CC(C)C)C(=O)N3)C(N)=O)nn1 (stereo partly drawn) [I-2432, Ac-PL3-Asp-Npg-B5-Asp-3COOHF-Ala-Ala-Phe-Leu-PyrS2-2F3MeF-BztA-Ser-[3C]TriAzLys-NH2]
2 | 1.76 | CC(=O)N1CCC[C@]12CC=CCCCC1(CCCC=CCCCOC(=O)N3CC[C@@](C(=O)N[C@@H](Cc4ccccc4)C(=O)N[C@@H](Cc4csc5ccccc45)C(=O)N[C@@H](CCC(N)=O)C(N)=O)(C3)NC(=O)[C@H]([C@@H](C)O)NC(=O)[C@H](Cc3ccccc3)NC(=O)[C@H](C)NC(=O)[C@H](C)NC(=O)[C@H](Cc3c[nH]cn3)NC(=O)[C@H](CC(=O)O)NC1=O)NC(=O)[C@H](CC(C)(C)C)NC(=O)[C@H](CCO)NC2=O (stereo partly drawn) [I-2438, Ac-PL3-Hse-Npg-B5-Asp-His-Ala-Ala-Phe-Thr-PyrS2-Phe-BztA-Gln-NH2]
3 | 2.76 | CC(=O)N1CCC[C@]12CC=CCCCC1(CCCC=CCCCOC(=O)N3CC[C@@](C(=O)N[C@@H](Cc4ccccc4)C(=O)N[C@@H](Cc4csc5ccccc45)C(=O)N[C@@H](CCC(N)=O)C(N)=O)(C3)NC(=O)[C@H](Cc3c[nH]cn3)NC(=O)[C@H](Cc3ccccc3)NC(=O)[C@H](C)NC(=O)[C@H](C)NC(=O)[C@H](CCC(N)=O)NC(=O)[C@H](CC(=O)O)NC1=O)NC(=O)[C@H](CC(C)(C)C)NC(=O)[C@H](CCO)NC2=O (stereo partly drawn) [I-2439, Ac-PL3-Hse-Npg-B5-Asp-Gln-Ala-Ala-Phe-His-PyrS2-Phe-BztA-Gln-NH2]
4 | 0.36 | CC(=O)N1CCC[C@]12CC=CCCCC1(CCCC=CCCCOC(=O)N3CC[C@@](C(=O)N[C@@H](Cc4ccccc4)C(=O)N[C@@H](Cc4csc5ccccc45)C(=O)N[C@@H](CCC(N)=O)C(N)=O)(C3)NC(=O)[C@H](Cc3c[nH]cn3)NC(=O)[C@H](Cc3ccccc3)NC(=O)[C@H](C)NC(=O)[C@H](C)NC(=O)[C@H](CCC(N)=O)NC(=O)[C@H](CC(=O)O)NC1=O)NC(=O)[C@H](CC(C)(C)C)NC(=O)[C@H](CC(N)=O)NC2=O (stereo partly drawn) [I-2440, Ac-PL3-Asn-Npg-B5-Asp-Gln-Ala-Ala-Phe-His-PyrS2-Phe-BztA-Gln-NH2]
5 | 0.282 | CC(=O)N1CCC[C@]12CC=CCCCC1(CCCC=CCCCOC(=O)N3CC[C@@](C(=O)N[C@@H](Cc4ccccc4)C(=O)N[C@@H](Cc4csc5ccccc45)C(=O)N[C@@H](CCC(N)=O)C(N)=O)(C3)NC(=O)[C@H](CC(C)C)NC(=O)[C@H](Cc3ccccc3)NC(=O)[C@H](C)NC(=O)[C@H](C)NC(=O)[C@H](Cc3c[nH]cn3)NC(=O)[C@H](CC(=O)O)NC1=O)NC(=O)[C@H](CC(C)(C)C)NC(=O)[C@H](CC(N)=O)NC2=O (stereo partly drawn) [I-2442, Ac-PL3-Asn-Npg-B5-Asp-His-Ala-Ala-Phe-Leu-PyrS2-Phe-BztA-Gln-NH2]
6 | 6.67 | CC(=O)N1CCC[C@]12CC=CCCCC1(CCCC=CCCCOC(=O)N3CC[C@@](C(=O)N[C@@H](Cc4ccccc4)C(=O)N[C@@H](Cc4csc5ccccc45)C(=O)N[C@@H](CCC(N)=O)C(N)=O)(C3)NC(=O)[C@H](CC(C)C)NC(=O)[C@H](Cc3ccccc3)NC(=O)[C@H](C)NC(=O)[C@H](C)NC(=O)[C@H](CCC(N)=O)NC(=O)[C@H](CC(=O)O)NC1=O)NC(=O)[C@H](CC(C)(C)C)NC(=O)[C@H](CCO)NC2=O (stereo partly drawn) [I-2443, Ac-PL3-Hse-Npg-B5-Asp-Gln-Ala-Ala-Phe-Leu-PyrS2-Phe-BztA-Gln-NH2]
7 | 0.121 | CCCc1cn(CCCC[C@@H](NC(=O)[C@H](CO)NC(=O)[C@H](Cc2csc3ccccc23)NC(=O)[C@H](Cc2ccccc2C(F)(F)F)NC(=O)[C@]23CCN(C2)C(=O)OCCCC=CCCCC2(CCCC=CC[C@]4(CCCN4C(C)=O)C(=O)N[C@@H](CC(=O)O)C(=O)N[C@@H](CC(C)(C)C)C(=O)N2)C(=O)N[C@@H](CC(=O)O)C(=O)N[C@@H](Cc2cccc(C(=O)O)c2)C(=O)N[C@@H](C)C(=O)N[C@@H](C)C(=O)N[C@@H](Cc2ccccc2)C(=O)N[C@@H](CC(C)C)C(=O)N3)C(N)=O)nn1 (stereo partly drawn) [I-2444, Ac-PL3-Asp-Npg-B5-Asp-3COOHF-Ala-Ala-Phe-Leu-PyrS2-2F3MeF-BztA-Ser-[3C]TriAzdLys-NH2]
8 | 3.25 | CC(=O)N1CCC[C@]12CC=CCCCC1(CCCC=CCCCOC(=O)N3CC[C@@](C(=O)N[C@@H](Cc4ccccc4)C(=O)N[C@@H](Cc4csc5ccccc45)C(=O)N[C@@H](CCC(N)=O)C(N)=O)(C3)NC(=O)[C@H](CC(C)C)NC(=O)[C@H](Cc3ccccc3)NC(=O)[C@H](C)NC(=O)[C@H](CCO)NC(=O)[C@H]([C@@H](C)O)NC(=O)[C@H](CC(=O)O)NC1=O)NC(=O)[C@H](CC1CCCCC1)NC(=O)[C@H](CC(N)=O)NC2=O (stereo partly drawn) [I-2447, Ac-PL3-Asn-Cha-B5-Asp-Thr-Hse-Ala-Phe-Leu-PyrS2-Phe-BztA-Gln-NH2]
9 | 4.86 | CC(=O)N1CCC[C@]12CCCCCCC1(CCCCCCCCOC(=O)N3CC[C@@](C(=O)N[C@@H](Cc4ccsc4)C(=O)N[C@@H](Cc4csc5ccccc45)C(=O)N[C@@H](CCC(N)=O)C(N)=O)(C3)NC(=O)[C@H](CC(C)C)NC(=O)[C@H](Cc3ccccc3)NC(=O)[C@H](C)NC(=O)[C@H](CCO)NC(=O)[C@H](CCC(N)=O)NC(=O)[C@H](CC(=O)O)NC1=O)NC(=O)[C@H](CC1CCCCC1)NC(=O)[C@H](CC(N)=O)NC2=O (stereo partly drawn) [I-2451, Ac-PL3-Asn-Cha-B5-Asp-Gln-Hse-Ala-Phe-Leu-PyrS2-3Thi-BztA-Gln-NH2]
10 | 7.2 | CC(=O)N1CCC[C@]12CCCCCCC1(CCCCCCCCOC(=O)N3CC[C@@](C(=O)N[C@@H](Cc4ccsc4)C(=O)N[C@@H](Cc4csc5ccccc45)C(=O)N[C@@H](CCC(N)=O)C(N)=O)(C3)NC(=O)[C@H](CC(C)C)NC(=O)[C@H](Cc3ccccc3)NC(=O)[C@H](C)NC(=O)[C@H](CCCCNC(C)C)NC(=O)[C@H](CCC(N)=O)NC(=O)[C@H](CC(=O)O)NC1=O)NC(=O)[C@H](CC1CCCCC1)NC(=O)[C@H](CC(N)=O)NC2=O (stereo partly drawn) [I-2452, Ac-PL3-Asn-Cha-B5-Asp-Gln-iPrLys-Ala-Phe-Leu-PyrS2-3Thi-BztA-Gln-NH2]
11 | 0.075 | CC(=O)N1CCC[C@]12CC=CCCCC1(CCCC=CCCCOC(=O)N3CC[C@@](C(=O)N[C@@H](Cc4ccccc4C(F)(F)F)C(=O)N[C@@H](Cc4ccc5ccccc5c4)C(=O)N[C@@H](C)C(N)=O)(C3)NC(=O)[C@H](CC(C)C)NC(=O)[C@H](Cc3ccccc3)NC(=O)[C@H](C)NC(=O)[C@H](CCC(N)=O)NC(=O)[C@H](Cc3cccc(C(=O)O)c3)NC(=O)[C@H](CC(=O)O)NC1=O)NC(=O)[C@H](CC(C)(C)C)NC(=O)[C@H](CC(=O)O)NC2=O (stereo partly drawn) [I-2461, Ac-PL3-Asp-Npg-B5-Asp-3COOHF-Gln-Ala-Phe-Leu-PyrS2-2F3MeF-2NapA-Ala-NH2]
12 | 0.015 | CC(=O)N1CCC[C@]12CC=CCCCC1(CCCC=CCCCOC(=O)N3CC[C@@](C(=O)N[C@@H](Cc4ccccc4C(F)(F)F)C(=O)N[C@@H](Cc4csc5ccccc45)C(=O)N[C@@H](CCC(=O)N(C)C)C(=O)N[C@@H](C)C(N)=O)(C3)NC(=O)[C@H](CC(C)C)NC(=O)[C@H](Cc3ccccc3)NC(=O)[C@H](C)NC(=O)[C@H](C)NC(=O)[C@H](Cc3cccc(C(=O)O)c3)NC(=O)[C@H](CC(=O)O)NC1=O)NC(=O)[C@H](CC(C)(C)C)NC(=O)[C@H](CC(=O)O)NC2=O (stereo partly drawn) [I-2466, Ac-PL3-Asp-Npg-B5-Asp-3COOHF-Ala-Ala-Phe-Leu-PyrS2-2F3MeF-BztA-Me2Gln-Ala-NH2]
